Experimental data from US7932213B2, “Small molecule printing” (President and Fellows of Harvard College, priority 1999, dated 2011).

How the values were obtained:
calmodulin = calmodulin (Homo sapiens, UniProt P0DP23); assay: Surface plasmon resonance (BIAcore) binding to immobilized calmodulin; conditions: SPR, steady state affinity analysis; resynthesized, purified compound; PBST containing 4% DMF
Description: Cy5 detection was chosen to avoid conflict with compound autofluorescence in the Cy3 channel. Positive hits from the microarray were retested for their ability to bind to the immobilized protein using surface plasmon resonance (SPR) spectroscopy (BIAcore). This process enables a rapid initial prioritization of positives prior to resynthesis, The initial secondary SPR screening was performed using compound (2 μL of a 1 mM DMF stock) directly from the original stock solutions used for microarray production. […] For this set, compound 5, 6, and 7 were resynthesized, purified, and their KDs with calmodulin determined by SPR using steady state affinity analysis.
Tetracycle 7: ^1H NMR (500 MHz, CDCl3) δ 6.95 (d, J=8.5 Hz, 2H), 6.87 (m, 4H), 6.71 (d, J=8.0 Hz, 2H), 6.55 (q, J=1.5 Hz, 1H), 6.04 (m, 1H), 4.93 (s, 1H), 4.68 (s, 1H), 3.84 (t, J=5.0 Hz, 4H), 3.34 (dd, J=17.0, 2.5 Hz, 1H), 3.28 (m, 2H), 3.16 (t, J=5.0 Hz, 4H), 3.02 (m, 1H), 2.94 (dd, J=15.0, 7.0 Hz, 1H), 2.54 (dd, J=17.5, 8.5 Hz, 1H), 2.36 (ddd J=15.5, 6.5, 3.5 Hz, 1H), 2.05 (d, J=1.5 Hz, 3H); ^13C NMR (125 MHz, CDCl3) δ 186.4, 186.1, 178.8, 177.1, 154.4, 151.2, 146.0, 143.4, 140.8, 139.5, 132.6, 132.5, 128.2, 127.1, 123.1, 122.7, 115.6, 115.5, 66.7, 48.7, 43.9, 42.6, 39.1, 32.4, 24.5, 24.1, 16.1; FT-IR (thin film) 3411, 2961, 2907, 2852, 1699, 1690, 1649, 1611, 1513, 1441, 1381, 1261, 1234, 1173, 1113, 922, 818, 730 cm^−1; HRMS (TOF ES) calcd for C33H31N2O6, 551.2182 m/z (M+H)^+; observed 551.2186 (0.8 ppm error). BIAcore Experiments Immobilization. In all experiments, calmodulin (CaM) was immobilized on a carboxymethylated dextran-coated sensor chip (CM5, Biacore AB, Uppsala, Sweden) at 25° C. For protein immobilization, ‘specific flow rate’ was selected and the protein of interest was immobilized in flow cells 2 and 4. On Biacore 3000, the sensor chip was activated (7 min in flow cells 2 and 4) by addition of 0.2 M N-ethyl-N'-(3-dimethylaminopropyl) carbodiimide hydrochloride (EDC) and 0.05 M N-hydroxysuccinimide (NHS) at 20 μL/min. […]

[1] = Precipitation of sample in SPR binding buffer (4% DMF/PBST); assay type: physicochemical; conditions: at 125 μM
Description: After the prioritization step, compounds 5, 6 and 7 were resynthesized, purified and subjected to KD determination. Samples were injected over a range of concentrations (e.g. 0.1-125 μM). The compound was prepared as a 10 mM stock solution in DMF. Serial dilutions of this stock were made and then added to the heated PBST (˜70° C., 1 min). In this analysis, a 200 μL final volume was prepared by addition of 8 μL of small molecule DMF solution into 192 μL of a heated PBST. The final concentration ranged between 0.015 μM and 125 μM. 5 and 6 precipitated at 125 μM in 4% DMF/PBST. Samples were injected in the alternation with blanks. “Flow cell 2 with 1 as a reference” was selected and each sample was analyzed in triplicate. For each experiment, a calibration for bulk differences between flow cells due to the high refractive index of DMF was performed by injecting blank samples containing a range of DMF concentrations (1, 2, 3, 3.5, 4, 4.5, 5%) in PBST under conditions otherwise identical to those used for samples of compounds 5, 6 and 7.

CN(C)c1ccc(/N=N/c2ccc(N3C(=O)[C@H]4[C@H](CC=C5[C@H]4C[C@H]4C(=O)N(c6ccc(F)c(Cl)c6)C(=O)[C@@]4(C)[C@H]5c4cc(Cl)ccc4O)C3=O)cc2)cc1 [Compound 5]
Kd (calmodulin): 0.121 ± 0.03 µM
precipitation in 4% DMF/PBST [1]: precipitated

Cc1c(-c2cc(N3C(=O)[C@@H]4C[C@@H]5C(=CC[C@@H]6C(=O)N(c7ccc(/N=N/c8ccc(N(C)C)cc8)cc7)C(=O)[C@@H]65)[C@H](c5cc(Cl)ccc5O)[C@]4(C)C3=O)n(C)n2)sc2ccc(Cl)cc12 [Compound 6]
Kd (calmodulin): 1.06 ± 0.09 µM
precipitation in 4% DMF/PBST [1]: precipitated

CC1=CC(=O)C2=C(C[C@@H]3C(=CC[C@@H]4C(=O)N(c5ccc(N6CCOCC6)cc5)C(=O)[C@@H]43)[C@@H]2c2ccc(O)cc2)C1=O [Compound 7]
Kd (calmodulin): 20.7 ± 1 µM
